In the supplement of paper PMC10307832:

Legend:
Experiment in all cases: relative viability (nuclei count vs DMSO), 5 days (fraction); higher = more cells survive
Metformin + Linsitinib = compound: CN(C)C(=N)NC(=N)N [Metformin] + C[C@]1(O)C[C@@H](c2nc(-c3ccc4ccc(-c5ccccc5)nc4c3)c3c(N)nccn32)C1 [Linsitinib] (partner 1 µM)
Summary of the method: (§1)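 Relative viability is defined as nuclei in treated wells over nuclei in vehicle wells. Duplicate plates were run and medians reported. Lung cancer cell lines in 1536-well plates were dosed by pin tool one day after seeding, with one drug or with a fixed anchor-drug dose plus five library-drug doses (not always all listed) in √10 steps, and nuclei were counted after 5 days.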

Metformin + Dasatinib = compound: CN(C)C(=N)NC(=N)N [Metformin] + Cc1nc(Nc2ncc(C(=O)Nc3c(C)cccc3Cl)s2)cc(N2CCN(CCO)CC2)n1 [Dasatinib] (partner 0.075 µM)
Summary of the method: as §1

Metformin + Pemetrexed = compound: CN(C)C(=N)NC(=N)N [Metformin] + Nc1nc2[nH]cc(CCc3ccc(C(=O)N[C@@H](CCC(=O)O)C(=O)O)cc3)c2c(=O)[nH]1 [Pemetrexed] (partner 0.2 µM)
Summary of the method: as §1

Apatinib + Lapatinib = compound: N#CC1(c2ccc(NC(=O)c3cccnc3NCc3ccncc3)cc2)CCCC1 [Apatinib] + CS(=O)(=O)CCNCc1ccc(-c2ccc3ncnc(Nc4ccc(OCc5cccc(F)c5)c(Cl)c4)c3c2)o1 [Lapatinib] (partner 2 µM)
Summary of the method: as §1

Cell Line	relative viability (Metformin + Linsitinib; first compound 10 µM)	relative viability (Metformin + Linsitinib; first compound 31.62 µM)	relative viability (Metformin + Linsitinib; first compound 100 µM)	relative viability (Metformin + Linsitinib; first compound 316.23 µM)	relative viability (Metformin + Linsitinib; first compound 1000 µM)	relative viability (Metformin + Dasatinib; first compound 10 µM)	relative viability (Metformin + Dasatinib; first compound 31.62 µM)	relative viability (Metformin + Dasatinib; first compound 100 µM)	relative viability (Metformin + Dasatinib; first compound 316.23 µM)	relative viability (Metformin + Dasatinib; first compound 1000 µM)	relative viability (Metformin + Pemetrexed; first compound 10 µM)	relative viability (Metformin + Pemetrexed; first compound 31.62 µM)	relative viability (Metformin + Pemetrexed; first compound 100 µM)	relative viability (Metformin + Pemetrexed; first compound 316.23 µM)	relative viability (Metformin + Pemetrexed; first compound 1000 µM)	relative viability (Apatinib + Lapatinib; first compound 0.08 µM)	relative viability (Apatinib + Lapatinib; first compound 0.253 µM)	relative viability (Apatinib + Lapatinib; first compound 0.8 µM)	relative viability (Apatinib + Lapatinib; first compound 2.53 µM)	relative viability (Apatinib + Lapatinib; first compound 8 µM)
SK-MES-1	0.979	0.927	0.993	0.939	1.02	0.252	0.41	0.338	0.314	0.321	0.532	0.721	0.805	0.662	0.708	0.473	0.473	0.512	0.414	0.502
NCI-H2170	–	–	–	–	–	0.514	0.625	0.619	0.664	0.634	0.238	0.281	0.264	0.266	0.267	0.307	0.241	0.466	0.271	0.281
NCI-H1648	–	–	–	–	–	–	–	–	–	–	–	0.664	0.876	0.67	0.713	–	–	–	–	–
NCI-H1915	–	1.22	1.15	1.14	1.11	–	0.34	0.346	0.335	0.355	–	0.438	0.404	0.379	0.435	1.04	0.94	0.892	0.802	0.935
HCC-366	0.646	0.703	0.75	0.559	0.691	0.565	0.566	0.632	0.568	0.81	0.13	0.21	0.139	0.162	0.158	1.07	1.14	0.98	0.979	1.02
HOP-62	0.891	1.09	0.995	1.04	0.846	0.748	0.664	0.687	0.713	0.655	0.239	0.336	0.276	0.215	0.321	0.994	–	0.945	0.955	0.929
RERF-LC-KJ	0.835	0.769	0.857	0.768	0.829	0.689	0.709	0.613	0.462	0.534	0.491	0.447	0.504	0.426	0.455	0.787	0.851	0.817	0.693	0.698
NCI-H2347	0.753	0.89	0.973	0.862	0.943	0.336	0.369	–	0.307	0.354	0.406	0.482	0.408	0.465	0.399	0.926	0.992	1.02	0.964	0.957
PC-14	1.03	0.955	0.916	0.918	1.03	0.337	0.285	0.253	0.235	0.233	0.167	0.154	0.164	0.14	0.157	0.384	0.29	0.283	0.277	0.23
IA-LM	0.119	0.729	0.611	0.404	0.78	–	–	–	–	–	–	–	–	–	–	0.814	0.677	0.772	0.6	0.305
NCI-H727	0.289	0.342	0.304	0.298	0.35	0.399	0.451	0.478	–	0.49	–	–	–	–	–	0.707	0.879	0.9	0.727	0.825
NCI-H1975	1.09	1.26	1.07	1.18	1.31	0.558	0.417	0.553	0.418	0.402	0.277	0.296	0.317	0.269	0.289	0.929	1.15	0.835	0.738	0.904
NCI-H2085	0.822	0.8	0.765	0.844	0.875	0.327	0.336	0.333	0.306	0.358	0.917	0.815	0.904	0.881	0.955	0.726	0.683	0.873	0.619	0.768
Calu-6	0.862	0.971	0.921	0.941	0.978	–	–	–	–	–	–	–	–	–	–	1.13	1.1	0.988	0.919	0.789
LC-2-ad	–	0.716	0.628	0.695	0.678	–	0.598	0.606	0.372	0.44	–	0.313	0.271	0.263	0.25	0.925	0.998	0.947	0.9	0.71
SW 900	–	–	–	–	–	0.844	0.989	0.73	0.825	0.766	0.52	0.479	–	0.507	0.477	–	–	–	–	–
HCC-827	–	0.89	0.945	0.883	0.973	–	0.317	0.356	0.317	0.316	0.236	0.282	0.265	0.263	0.263	0.197	0.177	0.165	0.19	0.196
EMC-BAC-2	0.795	0.812	0.799	0.783	0.853	0.37	0.312	0.323	0.334	0.395	0.429	0.488	0.452	0.492	0.48	0.954	0.886	0.878	0.877	0.807
NCI-H322M	1.04	0.954	0.934	0.864	0.915	0.326	0.318	0.31	0.305	0.245	0.68	0.621	0.644	0.606	0.594	0.571	0.465	0.57	0.64	0.584
